Laboratory results taken from patent publication US9216983B2, “Dihydroorotate dehydrogenase inhibitors with selective anti-malarial activity” (BOARD OF REGENTS, UNIVERSITY OF TEXAS SYSTEM, priority 2007, dated 2015).
Where “and” joins values, the source holds several entries; their conditions need not be identical. Equal values may be shown once. Read-outs that look alike come from different tables or passages of the source.

What was measured:
[1] = target: T1, PfDHODH (Plasmodium falciparum, UniProt Q08210); experiment: biochemical
T1 sequence (Q08210 24-569): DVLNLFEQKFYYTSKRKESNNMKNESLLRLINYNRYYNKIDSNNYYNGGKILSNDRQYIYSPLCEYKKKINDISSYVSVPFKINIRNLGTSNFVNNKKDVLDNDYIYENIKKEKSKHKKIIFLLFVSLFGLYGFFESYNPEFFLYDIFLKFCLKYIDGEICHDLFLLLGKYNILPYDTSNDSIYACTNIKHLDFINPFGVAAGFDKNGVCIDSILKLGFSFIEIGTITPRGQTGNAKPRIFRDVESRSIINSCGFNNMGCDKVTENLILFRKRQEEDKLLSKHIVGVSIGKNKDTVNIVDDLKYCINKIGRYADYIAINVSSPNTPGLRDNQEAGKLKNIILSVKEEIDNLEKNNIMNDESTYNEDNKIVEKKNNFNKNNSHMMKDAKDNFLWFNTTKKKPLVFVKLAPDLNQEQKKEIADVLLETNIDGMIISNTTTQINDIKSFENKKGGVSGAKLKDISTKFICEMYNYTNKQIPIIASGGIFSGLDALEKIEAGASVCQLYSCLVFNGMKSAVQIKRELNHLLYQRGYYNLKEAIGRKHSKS
Protocol: (§1) Briefly, the assay solution contained 100 mM HEPES, pH 8.0, 150 mM NaCl, 10% glycerol, 0.1% Triton X-100, 20 micro molar COQD (coenzyme QD), 200 micro molar L-dihydroorotate, and 120 micro molar DCIP. Reactions are initiated by addition of enzyme to a final concentration in the range of about […] to about 50 nM while maintaining the temperature of a circulating water bath at 25° C.
(§2) Assay solutions were prepared as discussed above, except that DCIP is not present and the solution is depleted of oxygen by the inclusion of an oxidase/reductase system, such as, 0.1 mg/ml of glucose oxidase, 0.02 mg/ml catalase and 50 mM glucose. The data obtained is fitted to equation 1, to determine the IC50 values of the representative compounds.

[2] = target: PbDHODH (Plasmodium berghei, UniProt A0A509AEH5); experiment: DHODH enzyme inhibition assay, PbDHODH; assay type: biochemical, P. berghei
PbDHODH, sequence (A0A509AEH5 entry or part of it): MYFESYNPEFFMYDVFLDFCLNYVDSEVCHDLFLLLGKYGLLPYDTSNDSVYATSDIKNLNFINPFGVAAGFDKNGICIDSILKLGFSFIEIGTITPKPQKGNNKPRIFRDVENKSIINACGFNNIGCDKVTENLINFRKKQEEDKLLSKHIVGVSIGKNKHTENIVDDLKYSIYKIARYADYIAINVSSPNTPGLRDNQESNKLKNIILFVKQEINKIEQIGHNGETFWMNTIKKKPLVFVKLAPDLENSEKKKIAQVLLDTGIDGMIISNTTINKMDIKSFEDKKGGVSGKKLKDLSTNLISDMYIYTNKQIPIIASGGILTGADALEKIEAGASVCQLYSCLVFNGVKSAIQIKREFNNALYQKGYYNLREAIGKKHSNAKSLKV
Protocol: as §1, §2

[3] = target: hDHODH (Homo sapiens, UniProt Q02127); experiment: DHODH enzyme inhibition assay, hDHODH; assay type: biochemical
hDHODH, sequence (Q02127 whole entry): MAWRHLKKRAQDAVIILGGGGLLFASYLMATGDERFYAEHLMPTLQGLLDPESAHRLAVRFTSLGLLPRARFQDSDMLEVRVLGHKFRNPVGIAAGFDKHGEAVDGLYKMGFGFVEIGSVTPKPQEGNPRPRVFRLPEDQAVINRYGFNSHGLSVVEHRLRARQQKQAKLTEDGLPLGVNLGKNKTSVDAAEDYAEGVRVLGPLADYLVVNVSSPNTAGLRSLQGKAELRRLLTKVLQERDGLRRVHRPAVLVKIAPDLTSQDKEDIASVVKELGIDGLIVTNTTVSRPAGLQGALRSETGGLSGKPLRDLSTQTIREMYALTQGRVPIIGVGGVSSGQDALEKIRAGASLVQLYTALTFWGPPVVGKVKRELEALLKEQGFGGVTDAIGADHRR
Protocol: as §1, §2

[4] = tested on: P. falciparum; experiment: Inhibition of cell proliferation, 3H-hypoxanthine uptake in P. falciparum-infected erythrocytes; assay type: cell-based
Description: [formula] II. In Vitro Evaluation of Compound Efficacy on the Human Malaria Parasite, P. falciparum.

[5] = Table 4, IC50 class, read-out: PfDHODH
[6] = Table 4, IC50 class, read-out: PbDHODH
[7] = Table 4, IC50 class, read-out: hDHODH
[8] = Table 5, read-out: PfDHODH IC50
[9] = Plasmodium falciparum, 3D7, Erythrocyte, Table 5, 3D7 cells, read-out: EC50 P. falciparum 3D7 cells
[10] = Table 1, read-out: IC50 PfDHODH
[11] = Plasmodium falciparum, Erythrocyte, Table 1, read-out: EC50 P. falciparum
[12] = Plasmodium falciparum, 3D7, Erythrocyte, Table 3, 3D7, single determinations, read-out: P. falciparum 3D7 EC50 (converted)
[13] = Table 3, average of the determinations, read-out: PbDHODH IC50 Ave (converted)

Compound	IC50 [1, 5] [µM]	IC50 [2, 6] [µM]	IC50 [3, 7] [µM]	also measured
Cc1cc(Nc2ccc(Cc3ccccc3)cc2)n2ncnc2n1	< 2	> 10	2 to 10	–
Cc1cc(Nc2ccc(C(C)C)cc2)n2ncnc2n1	< 2	–	> 10	IC50 ([2]; PbDHODH, Table 4, IC50 class): < 2 µM
Cc1cc(Nc2ccc(Br)c(C(F)(F)F)c2)n2ncnc2n1	< 2	< 2	> 10	–
Cc1cc(Nc2ccc(Br)c(C)c2)n2nc(C)nc2n1	–	–	–	IC50 [1, 8]: 0.0706 µM; EC50 [4, 9]: 0.08 to 0.12 µM
Cc1cc(Nc2ccc3cc4ccccc4cc3c2)n2nc(C)nc2n1	–	–	–	IC50 [1, 10]: 0.1 µM; EC50 [4, 11]: 0.23 ± 0.0014 µM; IC50 ([3]; Table 1, read-out: IC50 hDHODH): > 200 µM
CCCCc1ccc(Nc2cc(C)nc3ncnn23)cc1	< 2	–	> 10	IC50 ([2]; PbDHODH, Table 4, IC50 class): 2 to 10 µM
Cc1cc(Nc2c(F)cc(F)cc2F)n2ncnc2n1	> 10	> 10	> 10	–
CCc1ccc(Nc2cc(C)nc3ncnn23)cc1	< 2	–	> 10	IC50 ([2]; PbDHODH, Table 4, IC50 class): 2 to 10 µM
Cc1nc2ncnn2c(Nc2ccc(C(F)(F)F)cc2)c1Cl [6-chloro-5-methyl-N-(4-(trifluoromethyl)phenyl)-[1,2,4]triazolo[1,5-a]pyrimidin-7-amine]	–	–	–	IC50 [1, 8]: 0.34 ± 0.06 µM; EC50 [4, 9]: 2.7 ± 0.03 µM
Cc1nc2nc(C)c(C)c(Nc3ccc(C(F)(F)F)cc3)n2n1 [2,5,6-trimethyl-N-(4-(trifluoromethyl)phenyl)-[1,2,4]triazolo[1,5-a]pyrimidin-7-amine]	–	–	–	IC50 [1, 8]: 3 ± 0.46 µM; EC50 [4, 9]: 3.6 ± 0.004 µM
Cc1cc(Nc2ccc3ccccc3c2)n2nc(C)nc2n1	–	–	–	IC50 [1, 10]: 0.12 ± 0.02 µM; EC50 [4, 11]: < 0.15 µM; IC50 ([3]; Table 1, read-out: IC50 hDHODH): > 200 µM
Cc1cc(Nc2ccc(F)c(C)c2)n2ncnc2n1	–	–	–	melting point: 231 °C
Cc1cc(Nc2cc(C(F)(F)F)cc(C(F)(F)F)c2)n2ncnc2n1	> 10	> 10	> 10	–
Cc1cc(Nc2cc(F)cc(F)c2)n2ncnc2n1	2 to 10	> 10	> 10	–
Cc1cc(Nc2cccc(C(F)(F)F)c2)n2ncnc2n1	> 10	> 10	> 10	–
Cc1cc(Nc2ccc(C)c(C)c2)n2ncnc2n1	< 2	2 to 10	> 10	–
Cc1cc(Nc2cccc(F)c2)n2ncnc2n1	2 to 10	> 10	> 10	–
CCCc1ccc(Nc2cc(C)nc3ncnn23)cc1	< 2	–	> 10	IC50 ([2]; PbDHODH, Table 4, IC50 class): 2 to 10 µM
Cc1cc(Nc2ccc(C)c(F)c2)n2ncnc2n1	< 2	2 to 10	> 10	–
Cc1ccc(Nc2cc(C)nc3ncnn23)c(F)c1	> 10	> 10	> 10	–
Cc1cc(Nc2ccc3ccccc3c2)n2nccc2n1	–	–	–	IC50 ([1]; Table 3, single determinations, read-out: PfDHODH IC50): 0.4 ± 0.09 µM; EC50 ([4]; Plasmodium falciparum, 3D7, Erythrocyte, Table 3, 3D7, average of the determinations, read-out: P. falciparum 3D7 EC50 Ave): 1 µM; EC50 [4, 12]: 0.99 ± 0.006 µM; EC50 ([4]; Table 3, 3D7, single determinations, read-out: P. falciparum 3D7 EC50 (converted)): 1.1 µM; IC50 [2, 13]: 3.3 µM
Cc1cc(Nc2ccc3[nH]c(C(F)(F)F)nc3c2)n2ncnc2n1	> 10	> 10	> 10	–
Cc1cc(Nc2ccccc2C)n2ncnc2n1	> 10	–	–	IC50 ([2]; PbDHODH, Table 4, IC50 class): > 10 µM
Cc1cc(Nc2cccc(Cl)c2)n2ncnc2n1 [drawing 23]	–	–	–	melting point: 227 °C

Compound	IC50 [1, 5] [µM]	IC50 [2, 6] [µM]	IC50 [3, 7] [µM]	also measured
Cc1cc(NCCCc2ccccc2)n2ncnc2n1	> 10	> 10	> 10	–
Cc1cc(Nc2ccc(C(F)(F)F)cc2)n2nc(C)nc2n1 [2,5-dimethyl-N-(4-(trifluoromethyl)phenyl)-[1,2,4]triazolo[1,5-a]pyrimidin-7-amine]	–	–	–	IC50 [1, 8]: 0.65 ± 0.31 µM; EC50 [4, 9]: 0.93 ± 0.018 µM
Cc1cc(Nc2ccc(C)c(C(F)(F)F)c2)n2ncnc2n1	< 2	2 to 10	> 10	–
Cc1cc(Nc2ccc(F)cc2)n2ncnc2n1	> 10	–	–	IC50 ([2]; PbDHODH, Table 4, IC50 class): > 10 µM
Cc1cc(Nc2ccc(Br)cc2)n2ncnc2n1	2 to 10	–	–	IC50 ([2]; PbDHODH, Table 4, IC50 class): > 10 µM
Cc1cc(Nc2c(F)c(F)c(F)c(F)c2F)n2ncnc2n1	> 10	–	–	IC50 ([2]; PbDHODH, Table 4, IC50 class): > 10 µM
Cc1cc(Nc2ccc(F)c(C)c2)n2ncnc2n1 [drawing 39]	2 to 10	> 10	2 to 10	–
Cc1cc(Nc2ccc(C(F)(F)F)c(F)c2)n2ncnc2n1	< 2	< 2	> 10	–
Cc1nc2ncnn2c(Nc2ccc(C(F)(F)F)cc2)c1C [5,6-dimethyl-N-(4-(trifluoromethyl)phenyl)-[1,2,4]triazolo[1,5-a]pyrimidin-7-amine]	–	–	–	IC50 [1, 8]: 1.2 ± 0.33 µM; EC50 [4, 9]: 2.7 ± 0.009 µM
Cc1nc2nc(C)c(Cl)c(Nc3ccc(C(F)(F)F)cc3)n2n1 [6-chloro-2,5-dimethyl-N-(4-(trifluoromethyl)phenyl)-[1,2,4]triazolo[1,5-a]pyrimidin-7-amine]	–	–	–	IC50 [1, 8]: 0.62 ± 0.08 µM; EC50 [4, 9]: 7.1 ± 0.04 µM
Cc1ccc(Nc2cc(C)nc3ncnn23)cc1	2 to 10	–	–	IC50 ([2]; PbDHODH, Table 4, IC50 class): > 10 µM
CCCCCc1ccc(Nc2cc(C)nc3ncnn23)cc1	< 2	–	–	IC50 ([2]; PbDHODH, Table 4, IC50 class): > 10 µM
Cc1cc(Nc2ccc([N+](=O)[O-])cc2)n2ncnc2n1	2 to 10	–	–	IC50 ([2]; PbDHODH, Table 4, IC50 class): 2 to 10 µM
Cc1cc(Nc2ccc(C(F)(F)F)cc2)n2ncnc2n1 [drawing 93]	–	–	–	EC50 [4, 9]: 0.33 ± 0.02 µM
CC1=NC2=NC=NC2C(Nc2ccc3ccccc3c2)=N1 (centres unmarked) [2-methyl-N-(naphthalen-2-yl)-9H-purin-6-amine]	–	–	–	IC50 ([1]; IC50 PfDHODH, Table 1): 0.44 ± 0.2 µM; EC50 ([4]; Plasmodium falciparum, Erythrocyte, read-out: EC50 P. falciparum): 1.6 µM; IC50 ([3]; Table 1, read-out: IC50 hDHODH): > 200 µM
Cc1cc(Nc2ccc(F)c(F)c2F)n2ncnc2n1	> 10	> 10	> 10	–
Cc1cc(Nc2ccc(Cl)cc2)n2ncnc2n1	< 2	2 to 10	> 10	–
Cc1cc(Nc2ccc(OC(F)(F)F)cc2)n2ncnc2n1	< 2	> 10	> 10	–
COc1ccc(Nc2cc(C)nc3ncnn23)cc1	< 2	< 2	> 10	–
Cc1cc(Nc2ccc(F)c(F)c2)n2ncnc2n1	2 to 10	–	–	IC50 ([2]; PbDHODH, Table 4, IC50 class): 2 to 10 µM
Cc1cc(Nc2ccc(C#N)c(C(F)(F)F)c2)n2ncnc2n1	–	–	2 to 10	IC50 ([1]; PfDHODH, Table 4, IC50 class): 2 to 10 µM; IC50 ([2]; PbDHODH, Table 4, IC50 class): > 10 µM
Cc1cc(Nc2ccc3ccccc3c2)n2ccnc2n1	–	–	–	IC50 ([1]; PfDHODH IC50, Table 3, single determinations): 0.16 µM and 0.14 µM; IC50 ([1]; Table 3, average of the determinations, read-out: PfDHODH IC50 Ave (converted)): 0.15 µM; EC50 [4, 12]: 0.2 ± 0.001 µM; IC50 [2, 13]: 2.8 µM
Cc1cc(Nc2ccc3c(c2)OCO3)n2ncnc2n1	< 2	–	> 10	IC50 ([2]; PbDHODH, Table 4, IC50 class): > 10 µM
Cc1cc(Nc2ccc(OC(F)F)cc2)n2ncnc2n1 [Compound 20, (4-Difluoromethoxy-phenyl)-(5-methyl-[1,2,4]triazolo[1,5-a]pyrimidin-7-yl)-amine]	–	–	–	melting point: 200 °C
